Literature values, collected in patent US11576871B2 (The Regents of the University of California, priority 2016, dated 2023).

Assays:
[1] = test system: intracellular cystine in circulating white blood cells
[2] = children with cystinosis

Row | SMILES | time to observed decrease in leukocyte cystine ([1]; delivery of cysteamine to the small intestine (WO 2007/089670)) | depletion of intracellular cystine ([1]; taken regularly, measured in circulating white blood cells) | reduction of urine volume (and liquid consumption) [2]
1 | NCCS [cysteamine, Cysteamine] | within an hour | up to 90% | –
2 | COc1ccc2c(c1)c(CC(=O)O)c(C)n2C(=O)c1ccc(Cl)cc1 [indomethacin] | – | – | about 30%
